According to patent US20120288531A1, “PHARMACEUTICAL COMPOSITIONS FOR DELIVERY OF FERRIC IRON COMPOUNDS, AND METHODS OF USE THEREOF” (priority 2011, published 2012):

What was measured:
[1] = one month at 25° and 40° C.
Blood hemoglobin = test: Repeated doses: effect on blood hemoglobin in normal SD rats; format: in vivo; conditions: ROA IJ (FAC) or PO (ferrous sulfate)
Method: Blood samples were collected pre-dosing (Day 1) and post-dosing (Day 22). Blood hemoglobin was evaluated using colorimetric assay.

[2] = Stability of ferric acetyl-hydroxamate complex in pre-hydrophilic fraction; conditions: pre-hydrophilic fraction of Table 1 (10% PVP-12 and 15% NaC8), 4 hours

O.O=C([O-])CN(CCN(CC(=O)[O-])CC(=O)[O-])CC(=O)[O-].[Fe+3].[Na+] [ferric sodium EDTA, ethylenediaminetetraacetic acid iron(III) sodium salt hydrate]
stability in the oily suspension [1]: good stability

ferrous sulfate
Hb at Day 22 (Mean ± SE) (Blood hemoglobin; post-dosing, daily for 21 days (18 doses), 6.3 mg iron per dose): 13.9 ± 0.2 g/dL
Hb at Day 1 (Mean ± SE) (Blood hemoglobin; pre-dosing, normal SD rats): 14.2 ± 0.2 g/dL

CC(=O)N[O-].CC(=O)N[O-].CC(=O)N[O-].[Fe+3] [ferric acetyl-hydroxamate]
precipitation and Fe2+ formation [2]: Neither precipitation nor Fe^2+ formation was observed
stability in the pre-hydrophilic fraction [2]: stable for 4 hours
